Data on six compounds can be found in patent publication US12402627B2, “Metal complexes for promoting growth in a photosynthetic organism” (Imperial College Innovations Limited, priority 2018, dated 2025).

Test [1] in a line: Kinetic measurement of HCO3− dehydration via stopped flow. Type of test: biochemical. To be noted: for Dehydration kobs: pH 7.4, 25° C. From the text:
(§1) The hydration and dehydration rate measurements were undertaken by detecting the associated pH change through the use of an appropriate colorimetric pH indicator via stopped-flow equipment (Applied Photophysics SX-20 Stopped-flow Spectrometer) as described by B. H. Gibbons et al. (J. Biol. Chem., 238(10), (1963), 3502-3507). The pH time-dependence of CO2 hydration or HCO3− dehydration was observed via the absorbance change of a buffered indicator solution in order to measure the change in Vhydr/dehydr over a concentration range of zinc mimic, and to determine the observed rate constant (kobs) for each reaction.
(§2) Following the procedure reported by K. Nakata et al. (J. Inorg. Biochem., 89, (2002), 255-266), a 0.1 M buffer solution containing 10×10^−5M indicator, 0.2 M NaClO4 and varying concentrations of the zinc complex in DMSO 1:9 H2O were loaded into one syringe and a CO2 or HCO3− aqueous solution in the other. […] The saturated solution was diluted appropriately to give the desired concentration of CO2. HCO3− solutions were prepared by dissolving NaHCO3 in water to give the desired concentration of HCO3−. The buffer-indicator pairs were chosen based upon their similar pKa's, and the pH of the buffer-indicator solution was adjusted to match these pKa's to maximize sensitivity to pH change (see Table 2).
(§3) Upon mixing of the two syringes, the change in absorbance over time was measured at 25° C. For each buffer solution employed over the tested pH range, the buffer factor (change in absorbance vs concentration of HCl/NaOH) and linearity of CO2 and HCO3− (change in absorbance vs concentration of CO2/HCO3−) were determined as controls.
(§4) Based upon the linearity of the response between CO2 or HCO3− concentration and change in absorbance, appropriate concentrations of CO2 or HCO3− were chosen within the linear range for the subsequent complex runs. At each concentration of complex, the Vhydr (rate of hydration) and Vdehyd (rate of dehydration) was measured and kobs (observed rate constant) was calculated as per the procedure of by K. Nakata et al. (J. Inorg. Biochem., 89, (2002), 255-266).
(§5) Briefly, Vhyd/dehyd=−Q(A0−Ae)[d(In(A−Ae))/dt]t→0, where Q=buffer factor. The function [d(In(A−Ae))/dt]t→0 was taken from fitting the first linear portion of the time-dependent absorbance data with a single exponential decay function. kobs was calculated as the slope of the linear fit between mimic concentration and Vhyd/dehyd/[S]. kcat (catalytic rate constant) was calculated as the pH independent catalyst rate constant as per K. Nakata et al. (J. Inorg. Biochem., 89, (2002), 255-266) and L. Koziol et al. (Inorg. Chem., 51(12), (2012) 6803-12) for the hydration reaction (kcat=kobs×(([H^+]/Ka)+1)), and Y.-J. Sun et al. (Inorg. Chem. Commun., 7(2), (2004), 165-168) for the dehydration reaction (kcat=(kobs×([H^+]+Ka))/[H^+]). Each run of 3 repeats was undertaken 3 times and the average taken, to give N=9.

Test [2] can be described thus: Kinetic measurement of CO2 hydration via stopped flow. Type of test: biochemical. To be noted: pH 7.4; for Hydration kobs: 25° C.
Source text: as §1, §2, §3, §4, §5

Test [3] has as its target T1, Rubisco (Spinacia oleracea, UniProt P00875).
T1 construct: from tissue; purified by the cited method of O'Donnelly et al., Plant Methods 2014
Description: Effect of zinc mimics on Rubisco activity (non-radioactive microplate assay, 3-PGA/NADH oxidation). Type of test: biochemical. Particulars: pH 8; 0-50 μM zinc mimic; FIGS. 4 to 7. The procedure: Rubisco was purified using hydrophobic interaction chromatography as per the method of K. O'Donnelly et al. (Plant methods, 10, (2014), 17). For all assays, the rate was determined using a non-radioactive microplate-based assay, which determines the product 3-phosphoglycerate (3-PGA) through the oxidation of NADH by optical density measurements at 340 nm at 25° C., adapted from R. Sulpice et al. (Plant Cell Environ., 30(9), (2007), 1163-75) and K. O'Donnelly et al. (Plant methods, 10, (2014), 17). A Thermo Scientific Varioskan Flash Multimode microplate reader was used to monitor the oxidation of NADH for 15 minutes every 100 ms.
The enzymological properties of Rubisco were typically measured as follows: 10 μL Rubisco and 10 μL of initial buffer were incubated for 15 mins, after which 10 μL of ribulose 1,5-biphosphate (RuBP) was added [Final concentrations for Rubisco assay in 30 μL total volume were 0, 10, 20, 40, 80, 150, 300 and 500 μM RuBP, 0.02 mg/mL Rubisco, 100 mM tricine (pH 8.0/NaOH), 20 mM MgCl2, 2 mM EDTA and 10 mM NaHCO3]. […] The activity was calculated as μmol·min^−l·mg^−1 using a calibration curve with 3PGA. […]
10 μL of Rubisco and 10 μL of pH 8 initial buffer containing varying concentrations of zinc complex were incubated in a 96 well plate for 15 mins. […] The final pH, after the addition of NaHCO3, and before the addition of Rubisco, was measured as pH 8.0. […]

In test [4] the test system is spinach (Spinacia oleracea L.). The test is described as follows: Effect of zinc mimics on spinach growth (number of new leaves). It is filed as in vivo. Particulars: 1.5 mM in DMSO or H2O, 5 μl droplets to each leaf, three times a week for two weeks, FIG. 8. The procedure:
Commercial cultivar spinach seeds (Spinacia oleracea L.) were planted in soil mixture of “John Innes Inc. seed sowing compost No2”: Vermiculite (4:1) in small pots. Spinach seeds were germinated in a Sanyo MLR-352 growth chamber under day (photosynthetically active photon flux density (PPFD) at 110-130 μmol·m-2s-1) and night conditions, changing every 12 hours. Air temperature was maintained at 20° C. and 15° C. during day and night conditions, respectively, with a constant relative humidity at 65%. Spinach plants were irrigated three times a week. At the second true leaf stage (approximately 3 weeks from seed germination), the seeds were transferred into larger singular pots in “John Innes No2—Potting on compost” soil. No extra fertilizer was added.
At the fourth true leaf stage (roughly 4-6 weeks after germination), the treatment (1.5 mM in DMSO or H2O) was applied directly to each leaf of the plant in 5 μl droplets using a Brand Handystep S. The treatments were applied three times a week (directly after irrigation) for two weeks. The leaf stage and the state of the leaves were observed throughout the treatment period.

[5] abbreviates: high substrate concentration (16.9 mM).
Where [6] appears, read: low substrate concentration (1.69 mM).

`O.[O-][Cl+3]([O-])([O-])[O-].[O-][Cl+3]([O-])([O-])[O-].[Zn+2].c1ccc2sc(CNCc3nc4ccccc4s3)nc2c1` [Zn2S, zinc complex of bis(2-benzothiazolylmethyl)amine]: the values for the Dehydration kobs in test [1] (setting [5]) and in test [1] (setting [6]) were 30.6 ± 0.6 M⁻¹ s⁻¹ and 115.2 ± 1.8 M⁻¹ s⁻¹, respectively. Besides, the “Hydration:Dehydration Ratio” value in test [2] (setting [5]) was 0.57; in test [2] (setting [6]), 3.01. The Hydration kobs in test [2] (setting [5]) turned out to be 17.5 ± 8.6 M⁻¹ s⁻¹; in test [2] (setting [6]), 347.1 ± 33.0 M⁻¹ s⁻¹.

As to “zinc complex of bis(2-benzimidazolylmethyl)(2-benzothiazolylmethyl)amine [Zn2N1S]”, the Dehydration kobs in test [1] (setting [5]) is 44.6 ± 1.6 M⁻¹ s⁻¹; in test [1] (setting [6]) it was 157.6 ± 2.1 M⁻¹ s⁻¹. Also, the “Hydration:Dehydration Ratio” value in test [2] (setting [5]) was 0.60; in test [2] (setting [6]), 3.14. In addition, the Hydration kobs in test [2] (setting [5]) turned out to be 26.6 ± 11.1 M⁻¹ s⁻¹; in test [2] (setting [6]), 495.4 ± 34.0 M⁻¹ s⁻¹.

Turning to “zinc complex of bis(2-benzothiazolylmethyl)(2-benzimidazolylmethyl)amine [Zn1N2S]”, in test [1] (from the results in Tables 3 and 4, pH 7.4), the specificity toward dehydration entry is “best specificity toward dehydration”. Also, the Dehydration kobs was found to be 51.9 ± 0.5 M⁻¹ s⁻¹ in test [1] (setting [5]) and 171.3 ± 4.5 M⁻¹ s⁻¹ in test [1] (setting [6]). Further, the rubisco activity result in test [3] is “significant improvement in activity”. Also, the results for the “Hydration:Dehydration Ratio” value in test [2] (setting [5]) and in test [2] (setting [6]) were 0.49 and 2.57, respectively. The Hydration kobs in test [2] (setting [5]) is 25.3 ± 8.4 M⁻¹ s⁻¹; in test [2] (setting [6]) it was 440.8 ± 24.5 M⁻¹ s⁻¹.

Take `O.[O-][Cl+3]([O-])([O-])[O-].[O-][Cl+3]([O-])([O-])[O-].[Zn+2].c1ccc2sc(CN(Cc3nc4ccccc4s3)Cc3nc4ccccc4s3)nc2c1` [Zn3S, zinc complex of tris(2-benzothiazolylmethyl)amine]: the Dehydration kobs is 37.8 ± 0.8 M⁻¹ s⁻¹ in test [1] (setting [5]) and 140.8 ± 4.8 M⁻¹ s⁻¹ in test [1] (setting [6]). Further, the rubisco activity result in test [3] is given as “significant improvement in activity”. Also, the “Hydration:Dehydration Ratio” value in test [2] (setting [5]) was 0.65; in test [2] (setting [6]), 3.05. The Hydration kobs in test [2] (setting [5]) amounted to 24.5 ± 10.4 M⁻¹ s⁻¹; in test [2] (setting [6]), 429.7 ± 51.2 M⁻¹ s⁻¹.

As to “zinc complex of tris(2-benzimidazolylmethyl)amine [Zn3N]”, the Dehydration kobs in test [1] (setting [5]) worked out at 33.8 ± 0.8 M⁻¹ s⁻¹; in test [1] (setting [6]) it was 124.1 ± 1.8 M⁻¹ s⁻¹. Also, the “number of new leaves” value in test [4] is reported as “significant improvement in the number of new leaves”. Moreover, the “Hydration:Dehydration Ratio” value in test [2] (setting [5]) stood at 1.02; in test [2] (setting [6]) it was 4.13. Moreover, the Hydration kobs was found to be 34.4 ± 11.3 M⁻¹ s⁻¹ in test [2] (setting [5]) and 512.3 ± 60.3 M⁻¹ s⁻¹ in test [2] (setting [6]).

For “zinc complex of bis(2-benzimidazolylmethyl)amine [Zn2N]”, the results for the Dehydration kobs in test [1] (setting [5]) and in test [1] (setting [6]) were 27.5 ± 0.5 M⁻¹ s⁻¹ and 94.1 ± 1.6 M⁻¹ s⁻¹, respectively. For the same compound, the “Hydration:Dehydration Ratio” value worked out at 0.80 in test [2] (setting [5]) and 3.94 in test [2] (setting [6]). The values for the Hydration kobs in test [2] (setting [5]) and in test [2] (setting [6]) were 22.0 ± 9.3 M⁻¹ s⁻¹ and 370.6 ± 13.4 M⁻¹ s⁻¹, respectively.
